The results in this text go back to patent US10323037B2, “Aminopyridazinone compounds as protein kinase inhibitors” (Jiangsu Hengrui Medicine Co., Ltd., priority 2014, dated 2019).

Each structure is given as a SMILES string.

One assay relates to TMD-8 cells. Kind of assay: Cell proliferation assay (CellTiter-Glo), TMD-8. Format: cell-based. To be noted: 5-day treatment; read-out: TMD8 cells growth IC50. The protocol: Cell proliferation assay: TMD-8 and SU-DHL-1 cells were maintained at 37° C. in a humidified atmosphere with 5% CO2 in the recommended medium and serum concentrations. For cell proliferation assay, cells were seeded in 96-well pates at a density of 5,000 to 10,000 cells per well and cultured overnight at 37° C. in recommended medium supplemented with 5-10% FBS. On the next day, the test articles at various concentrations or vehicle control (0.5% DMSO) were added into cell culture. After 5-day treatment, the growth of cells was assayed by the CellTiter-Glo® Luminestceaent Cell Viability Assay (Promega). IC50 values were calculated using GraphPad Prism by plotting the logarithm of the concentration versus percent inhibition of cell growth as compared with the vehicle control.
A general note: Cellular ATP, detected with luciferase, serves as a proxy for viable cell number.
Take `CN(C)C/C=C/C(=O)N1CCC(F)C(n2cc(-c3ccc(Oc4ccccc4)cc3)c3c(N)n[nH]c(=O)c32)C1` (stereo not shown) [Example 45, 4-amino-1-[1-[(E)-4-(dimethylamino)but-2-enoyl]-4-fluoro-3-piperidyl]-3-(4-phenoxyphenyl)-6H-pyrrolo[2,3 d]pyridazin-7-one]: the concentration for half-maximal inhibition (IC50) (usually the concentration that inhibits the measured activity by half) is at most 10 nM.

Still in this assay, the particulars now being: Homo sapiens, TMD8, 120 h; 5-day treatment; read-out: TMD8 cells growth IC50.
For the compound `CN(C)C/C=C/C(=O)N1CCC(n2cc(-c3ccc(Oc4ccccc4)cc3)c3c(N)n[nH]c(=O)c32)CC1` [Example 44, 4-amino-1-[1-[(E)-4-(dimethylamino)but-2-enoyl]-4-piperidyl]-3-(4-phenoxyphenyl)-6H-pyrrolo[2,3-d]pyridazin-7-one], the IC50 lay in the range of 10 to 1000 nM. On the same count and under the same terms, as for `N#CCC(=O)N1CCC[C@@H](n2cc(-c3ccc(Oc4ccccc4)cc3)c3c(N)n[nH]c(=O)c32)C1` [Example 24, 3-[(3R)-3-[4-amino-7-oxo-3-(4-phenoxyphenyl)-6H-pyrrolo[2,3-d]pyridazin-1-yl]-1-piperidyl]-3-oxo-propanenitrile], the figure is 10 to 1000 nM; as for `C=CC(=O)N1CCC[C@H](n2cc(-c3ccc(Oc4c(F)cccc4F)cc3)c3c(N)n[nH]c(=O)c32)C1` [Example 114, (S)-1-(1-acryloylpiperidin-3-yl)-4-amino-3-(4-(2,6-difluorophenoxy)phenyl)-1H-pyrrolo[2,3-d]pyridazin-7(6H)-one], at most 10 nM. In the case of `COc1cc(-c2cn(C3CCCN(C(=O)/C=C/CN(C)C)C3)c3c(=O)[nH]nc(N)c23)ccc1Oc1cccc(Cl)c1` (stereo not shown) [Example 69, 4-amino-3-[4-(3-chlorophenoxy)-3-methoxy-phenyl]-1-[1-[(E)-4-(dimethylamino)but-2-enoyl]-3-piperidyl]-6H-pyrrolo[2,3-d]pyridazin-7-one], the concentration for half-maximal inhibition (IC50) is at most 10 nM. The same measure, in the same setting: as for `N#CN1CCC[C@@H](n2cc(-c3ccc(Oc4c(F)cccc4F)cc3)c3c(N)n[nH]c(=O)c32)C1` [Example 84, (R)-3-(4-amino-3-(4-(2,6-difluorophenoxy)phenyl)-7-oxo-6,7-dihydro-1H-pyrrolo[2,3-d]pyridazin-1-yl)piperidine-1-carbonitrile], the figure is at most 10 nM; as for `C=CC(=O)N1CCC[C@@H](n2cc(-c3ccc(Oc4ccccc4F)cc3)c3c(N)n[nH]c(=O)c32)C1` [Example 56, (R)-1-(1-acryloylpiperidin-3-yl)-4-amino-3-(4-(2-fluorophenoxy)phenyl)-1H-pyrrolo[2,3-d]pyridazin-7(6H)-one], at most 10 nM.

With `CC#CC(=O)N1CC[C@@H](n2cc(-c3ccc(Oc4ccccc4F)cc3)c3c(N)n[nH]c(=O)c32)C1` [Example 95, (R)-4-amino-1-(1-(but-2-ynoyl)pyrrolidin-3-yl)-3-(4-(2-fluorophenoxy)phenyl)-1H-pyrrolo[2,3-d]pyridazin-7(6H)-one], the 50% inhibitory concentration (IC50) was at most 10 nM. On to `C=CC(=O)N1CCC[C@@H](n2nc(-c3ccc(Oc4ccccc4)cc3)c3c(N)n[nH]c(=O)c32)C1` [Example 110, (R)-1-(1-acryloylpiperidin-3-yl)-4-amino-3-(4-phenoxyphenyl)-1H-pyrazolo[3,4-d]pyridazin-7(6H)-one], for which the IC50 is at most 10 nM. On the same count and under the same terms, as for `CC#CC(=O)N1CCC[C@@H](n2cc(-c3ccc(Oc4c(F)cccc4F)cc3)c3c(N)n[nH]c(=O)c32)C1` [Example 117, (R)-4-amino-1-(1-(but-2-ynoyl)piperidin-3-yl)-3-(4-(2,6-difluorophenoxy)phenyl)-1H-pyrrolo[2,3-d]pyridazin-7(6H)-one], the figure is 10 to 1000 nM; as for `CC#CC(=O)N1CC[C@@H](n2cc(-c3ccc(Oc4ccccc4Cl)cc3)c3c(N)n[nH]c(=O)c32)C1` [Example 96, (R)-4-amino-1-(1-(but-2-ynoyl)pyrrolidin-3-yl)-3-(4-(2-chlorophenoxy)phenyl)-1H-pyrrolo[2,3-d]pyridazin-7(6H)-one], 10 to 1000 nM. Turning to `C/C=C/C(=O)N1CCC[C@@H](n2cc(-c3ccc(Oc4ccccc4)cc3)c3c(N)n[nH]c(=O)c32)C1` [Example 25, 4-amino-1-[(3R)-1-[(E)-but-2-enoyl]-3-piperidyl]-3-(4-phenoxyphenyl)-6H-pyrrolo[2,3-d]pyridazin-7-one], the IC50 was in the range of 10 to 1000 nM. On the same count and under the same terms, under `CC(C)N(C)C/C=C/C(=O)N1CCC[C@@H](n2cc(-c3ccc(Oc4ccccc4)cc3)c3c(N)n[nH]c(=O)c32)C1` [Example 16, 4-amino-1-[(3R)-1-[(E)-4-[isopropyl(methyl)amino]but-2-enoyl]-3-piperidyl]-3-(4-phenoxyphenyl)-6H-pyrrolo[2,3-d]pyridazin-7-one] stands 10 to 1000 nM; under `N#CN1CC[C@@H](n2cc(-c3ccc(Oc4ccccc4)cc3)c3c(N)n[nH]c(=O)c32)C1` [Example 107, (R)-3-(4-amino-7-oxo-3-(4-phenoxyphenyl)-6,7-dihydro-1H-pyrrolo[2,3-d]pyridazin-1-yl)pyrrolidine-1-carbonitrile], 1000 to 100000 nM. On to `C=CC(=O)N1CCC[C@H]1Cn1cc(-c2ccc(Oc3ccccc3)cc2)c2c(N)n[nH]c(=O)c21` [Example 6, 4-amino-3-(4-phenoxyphenyl)-1-[[(2S)-1-prop-2-enoylpyrrolidin-2-yl]methyl]-6H-pyrrolo[2,3-d]pyridazin-7-one], for which the concentration for half-maximal inhibition (IC50) was at most 10 nM.

Regarding `N#C/C(=C\C1CC1)C(=O)N1CCC[C@@H](n2cc(-c3ccc(Oc4ccccc4)cc3)c3c(N)n[nH]c(=O)c32)C1` [Example 50, (E)-2-[(3R)-3-[4-amino-7-oxo-3-(4-phenoxyphenyl)-6H-pyrrolo[2,3-d]pyridazin-1-yl]piperidine-1-carbonyl]-3-cyclopropyl-prop-2-enenitrile], the concentration for half-maximal inhibition (IC50) lay within 10 to 1000 nM.

`C=CC(=O)N1CCC[C@@H](n2cc(-c3ccc(Oc4ccccc4)c(F)c3)c3c(N)n[nH]c(=O)c32)C1` [Example 74, (R)-1-(1-acryloylpiperidin-3-yl)-4-amino-3-(3-fluoro-4-phenoxyphenyl)-1H-pyrrolo[2,3-d]pyridazin-7(6H)-one]: the IC50 is at most 10 nM. Same read-out and setting: as for `C=CC(=O)Nc1cccc(-n2cc(-c3ccc(OC)c(Cl)c3)c3c(N)n[nH]c(=O)c32)c1` [Example 89, N-(3-(4-amino-3-(3-chloro-4-methoxyphenyl)-7-oxo-6,7-dihydro-1H-pyrrolo[2,3-d]pyridazin-1-yl)phenyl)acrylamide], the figure is 10 to 1000 nM; as for `C=CC(=O)N1CCCC(n2cc(-c3ccc(Oc4ccccc4F)cc3)c3c(N)n[nH]c(=O)c32)C1` (stereo not shown) [Example 55, 1-(1-acryloylpiperidin-3-yl)-4-amino-3-(4-(2-fluorophenoxy)phenyl)-1H-pyrrolo[2,3-d]pyridazin-7(6H)-one], at most 10 nM. Same read-out and setting: under `CN(C)C/C=C/C(=O)N1CC[C@@H](n2cc(-c3ccc(Oc4ccccc4)cc3)c3c(N)n[nH]c(=O)c32)C1` [Example 39, 4-amino-1-[(3R)-1-[(E)-4-(dimethylamino)but-2-enoyl]pyrrolidin-3-yl]-3-(4-phenoxyphenyl)-6H-pyrrolo[2,3-d]pyridazin-7-one] stands at most 10 nM. For `CN(C)C/C=C/C(=O)N1CCC[C@@H](n2cc(-c3ccc(Oc4c(F)cccc4F)cc3)c3c(N)n[nH]c(=O)c32)C1` [Example 59, 4-amino-3-[4-(2,6-difluorophenoxy)phenyl]-1-[(3R)-1-[(E)-4-(dimethylamino)but-2-enoyl]-3-piperidyl]-6H-pyrrolo[2,3-d]pyridazin-7-one], the half-inhibitory concentration (IC50) is at most 10 nM. The same measure, in the same setting: under `COc1ccc(-c2cn(C3CCCN(C(=O)/C=C/CN(C)C)C3)c3c(=O)[nH]nc(N)c23)cc1` (stereo not shown) [Example 52, 4-amino-1-[1-[(E)-4-(dimethylamino)but-2-enoyl]-3-piperidyl]-3-(4-methoxyphenyl)-6H-pyrrolo[2,3-d]pyridazin-7-one] stands 1000 to 100000 nM; under `Nc1n[nH]c(=O)c2c1c(-c1ccc(Oc3ccccc3)cc1)cn2[C@@H]1CCCN(C(=O)CCl)C1` [Example 22, 4-amino-1-[(3R)-1-(2-chloroacetyl)-3-piperidyl]-3-(4-phenoxyphenyl)-6H-pyrrolo[2,3-d]pyridazin-7-one], 10 to 1000 nM. As for `C=CC(=O)N1C[C@H](n2cc(-c3ccc(Oc4ccccc4)cc3)c3c(N)n[nH]c(=O)c32)CC(F)(F)C1` [Example 14, (R)-1-(1-acryloyl-5,5-difluoropiperidin-3-yl)-4-amino-3-(4-phenoxyphenyl)-1H-pyrrolo[2,3-d]pyridazin-7(6H)-one], the half-maximal inhibitory concentration (IC50) is at most 10 nM.

Take `CC#CC(=O)N1CC[C@@H](n2cc(-c3ccc(Oc4c(F)cccc4Cl)cc3)c3c(N)n[nH]c(=O)c32)C1` [Example 94, (R)-4-amino-1-(1-(but-2-ynoyl)pyrrolidin-3-yl)-3-(4-(2-chloro-6-fluorophenoxy)phenyl)-1H-pyrrolo[2,3-d]pyridazin-7(6H)-one]: the IC50 is at most 10 nM. As for `COc1ccc(-c2cn(C3CCCN(C(=O)/C=C/CN(C)C)C3)c3c(=O)[nH]nc(N)c23)cc1Cl` (stereo not shown) [Example 54, 4-amino-3-(3-chloro-4-methoxy-phenyl)-1-[1-[(E)-4-(dimethylamino)but-2-enoyl]-3-piperidyl]-6H-pyrrolo[2,3-d]pyridazin-7-one], the 50% inhibitory concentration (IC50) is 10 to 1000 nM. Turning to `CN(C)C/C=C/C(=O)N1CCC[C@@H](n2cc(-c3ccc(Oc4ccccc4F)cc3)c3c(N)n[nH]c(=O)c32)C1` [Example 57, 4-amino-1-[(3R)-1-[(E)-4-(dimethylamino)but-2-enoyl]-3-piperidyl]-3-[4-(2-fluorophenoxy)phenyl]-6H-pyrrolo[2,3-d]pyridazin-7-one], the IC50 is at most 10 nM. As to `C=CC(=O)N1CCC(Cn2cc(-c3ccc(Oc4ccccc4)cc3)c3c(N)n[nH]c(=O)c32)CC1` [Example 10, 4-amino-3-(4-phenoxyphenyl)-1-[(1-prop-2-enoyl-4-piperidyl)methyl]-6H-pyrrolo[2,3-d]pyridazin-7-one], the IC50 is 10 to 1000 nM.
